According to patent US20230390247A1, “BIPHENYL PYRROLIDINE AND BIPHENYL DIHYDROIMIDAZOLE DERIVATIVES FOR INHIBITING ACTIVITY OF 5-HT7 SEROTONIN RECEPTOR, AND PHARMACEUTICAL COMPOSITION COMPRISING SAME AS ACTIVE INGREDIENT” (priority 2020, published 2023):

How the values were obtained:
[1] = target: T1, 5-HT7R (Homo sapiens (Human), UniProt P34969); assay: cAMP assay (luminescence-based, GloSensor); type: cell-based; conditions: HEK293 cells transfected with human 5-HT7R and GloSensor-22F
Protocol: For luminescence-based cAMP assay, HEK293 cells were cultured on a 150-mm dish. Prior to transfection, the culture medium was replaced from DMEM containing 10% FBS, 100 U/mL penicillin and 100 μg/mL streptomycin to DMEM containing 10% dialyzed FBS, 100 U/mL penicillin and 100 μg/mL streptomycin. 4 hours later, transfection was conducted using 10 μg of a human 5-HT7R plasmid and 10 μg of a GloSensor-22F plasmid (Promega). The transfected cells were prepared on a white, flat, clear-bottom, 384-well plate (Greiner) (15,000 cells/well, 20 μL/well). 6 hours later, after removing the culture medium, the cells were treated with 20 μL of a 3% Glosensor cAMP reagent containing luciferin in a 1×HBSS, […], pH 7.4 buffer. In addition, the compound of each of the examples was prepared at different concentrations in an assay buffer containing 0.1% bovine serum albumin. 30 minutes later, 10 μL of the compound solution was treated to the cells. After measuring luminescence using a Tecan microplate reader (Spark), IC50 value was obtained using the Prism 8.0 program (GraphPad Software).

[2] = target: T1, 5-HT7R; assay: Tango assay (β-arrestin signaling system); type: cell-based; conditions: HTLA cells transfected with 5-HT7R-TCS-tTA construct
Protocol: Tango assay was conducted using HTLA cells in order to investigate the activity of the β-arrestin signaling system. Prior to transfection, the culture medium was replaced from DMEM containing 10% FBS, 100 U/mL penicillin, 100 μg/mL streptomycin, 2 μg/mL puromycin and 100 μg/mL hygromycin B to DMEM containing 10% dialyzed FBS, 100 U/mL penicillin and 100 μg/mL streptomycin. 4 hours later, transfection was conducted using 20 μg of a 5-HT7R-TCS-tTA construct (5-HT7R Tango DNA). The transfected cells were prepared on a white, flat, clear-bottom, 384-well plate (Greiner) (15,000 cells/well, 20 μL/well) using DMEM containing 10% dialyzed FBS, 100 U/mL penicillin and 100 μg/mL streptomycin. 6 hours later, after removing the culture medium, the cells were treated with 10 μL of the compound solution. After culturing for 22 hours and removing the culture medium, the cells were treated with 20 μL of a BrightGlo reagent (Promega) diluted in a 1×HBSS, […], pH 7.4 buffer. After measuring luminescence using a Tecan microplate reader (Spark), IC50 value was obtained using the Prism 8.0 program (GraphPad Software).

T1 sequence (P34969 whole entry): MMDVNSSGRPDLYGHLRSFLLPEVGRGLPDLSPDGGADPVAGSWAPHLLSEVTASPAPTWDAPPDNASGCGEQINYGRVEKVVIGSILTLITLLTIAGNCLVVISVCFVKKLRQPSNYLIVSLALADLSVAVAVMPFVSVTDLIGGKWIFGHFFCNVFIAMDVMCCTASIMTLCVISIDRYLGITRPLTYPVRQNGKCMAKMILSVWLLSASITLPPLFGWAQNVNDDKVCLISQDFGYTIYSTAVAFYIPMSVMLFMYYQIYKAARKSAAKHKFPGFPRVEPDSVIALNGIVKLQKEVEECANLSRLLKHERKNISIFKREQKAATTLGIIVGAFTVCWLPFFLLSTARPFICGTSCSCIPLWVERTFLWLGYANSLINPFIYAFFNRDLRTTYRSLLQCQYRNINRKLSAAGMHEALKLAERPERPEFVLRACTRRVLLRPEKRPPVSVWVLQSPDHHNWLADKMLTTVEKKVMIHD

Row | SMILES | inhibition at 10 µM [1] | inhibition at 10 µM [2] | IC50 [2] | IC50 [1]
1 | Clc1cccc(-c2cccc(CN3CCCC3)c2)c1 [Compound 3, 1-((3′-chloro-[1,1′-biphenyl]-3-yl)methyl)pyrrolidine] | 85.9% | 33.2% | – | 4.88 µM
2 | Cc1ccc(-c2cc(CN3CCCC3)ccc2Cl)cc1 [Compound 18, 1-((6-chloro-4′methyl-[1,1′-biphenyl]-3-yl)methyl)pyrrolidine] | 73.4% | 21.5% | – | 8.2 µM
3 | COc1cccc(-c2cccc(CN3CCCC3)c2)c1 [Compound 9, 1-((3′-methoxy-[1,1′-biphenyl]-3-yl)methyl)pyrrolidine] | 67.2% | 16.7% | – | 6.44 µM
4 | Cc1ccc(-c2cccc(CN3CCCC3)c2)cc1 [Compound 7, 1-((4′-methyl-[1,1′-biphenyl]-3-yl)methyl)pyrrolidine] | 32.5% | 20.6% | – | –
5 | Clc1ccc(-c2cccc(C3=NCCN3)c2)cc1 [Compound 26, 2-(4′-chloro-[1,1′-biphenyl]-3-yl)-4,5-dihydro-1H-imidazole] | 43% | 23.1% | – | –
6 | Clc1ccc(CN2CCCC2)cc1-c1ccccc1 [Compound 12, 1-((6-chloro-[1,1′-biphenyl]-3-yl)methyl)pyrrolidine] | 80.8% | 26.1% | – | 4.89 µM
7 | COc1cccc(-c2cc(CN3CCCC3)ccc2Cl)c1 [Compound 20, 1-((6-chloro-3′methoxy-[1,1′-biphenyl]-3-yl)methyl)pyrrolidine] | 70.1% | 26% | – | 7.48 µM
8 | Cc1ccc(-c2cccc(C3=NCCN3)c2)cc1 [Compound 29, 2-(4′-methyl-[1,1′-biphenyl]-3-yl)-4,5-dihydro-1H-imidazole] | 35.2% | 17.2% | – | –
9 | Clc1ccc(-c2cc(C3=NCCN3)ccc2Cl)cc1 [Compound 37, 2-(4′,6-dichloro-[1,1′-biphenyl]-3-yl)-4,5-dihydro-1H-imidazole] | 43.3% | 39.6% | – | –
10 | COc1cccc(-c2cc(C3=NCCN3)ccc2Cl)c1 [Compound 42, 2-(6-chloro-3′-methoxy-[1,1′-biphenyl]-3-yl)-4,5-dihydro-1H-imidazole] | 49.8% | 23.4% | – | –
11 | COc1ccccc1-c1cc(CN2CCCC2)ccc1Cl [Compound 19, 1-((6-chloro-2′-methoxy-[1,1′-biphenyl]-3-yl)methyl)pyrrolidine] | 51.8% | 19.7% | – | –
12 | Clc1ccc(-c2cc(CN3CCCC3)ccc2Cl)cc1 [Compound 15, 1-((4′,6-dichloro-[1,1′-biphenyl]-3-yl)methyl)pyrrolidine] | 63.8% | 34.3% | – | 7.15 µM
13 | COc1ccc(-c2cc(C3=NCCN3)ccc2Cl)cc1 [Compound 43, 2-(6-chloro-4′-methoxy-[1,1-biphenyl]-3-yl)-4,5-dihydro-1H-imidazole] | 36.8% | 21.5% | – | –
14 | Cc1ccccc1-c1cc(CN2CCCC2)ccc1Cl [Compound 16, 1-((6-chloro-2′-methyl-[1,1′-biphenyl]-3-yl)methyl)pyrrolidine] | 73.3% | 30.9% | – | 6.42 µM
15 | COc1ccc(-c2cc(CN3CCCC3)ccc2Cl)cc1 [Compound 21, 1-((6-chloro-4′-methoxy-[1,1′-biphenyl]-3-yl)methyl)pyrrolidine] | 44.7% | 18.6% | – | –

Second part, led by results:

Row | inhibition at 10 µM [1] | inhibition at 10 µM [2] | IC50 [2] | SMILES | IC50 [1]
16 | 51.1% | 27.9% | – | Clc1cccc(-c2cc(CN3CCCC3)ccc2Cl)c1 [Compound 14, 1-((3′,6-dichloro-[1,1′-biphenyl]-3-yl)methyl)pyrrolidine] | –
17 | 32.8% | 14% | – | COc1cccc(OC)c1-c1cccc(C2=NCCN2)c1 [Compound 33, 2-(2′,6′-dimethoxy-[1,1′-biphenyl]-3-v1)-4 1 5-dihydro-1H-imidazole] | –
18 | 42.1% | 17.5% | 22.9 µM | c1ccc(-c2cccc(CN3CCCC3)c2)cc1 [Compound 1, 1-([1,1′-biphenyl]-3-ylmethyl)pyrrolidine] | –
19 | 48.1% | 27% | – | Cc1cccc(-c2cc(C3=NCCN3)ccc2Cl)c1 [Compound 39, 2-(6-chloro-3′-methyl-[1,1′-biphenyl]-3-yl)-4,5-dihydro-1H-imidazole] | –
20 | 38.9% | 22% | – | Cc1cccc(-c2cccc(CN3CCCC3)c2)c1 [Compound 6, 1-((3′-methyl-[1,1′-biphenyl]-3-yl)methyl)pyrrolidine] | –
21 | 48.4% | 9.8% | – | COc1cccc(OC)c1-c1cc(C2=NCCN2)ccc1Cl [Compound 44, 2-(6-chloro-2′,6′-dimethoxy-[1,1′-biphenyl]-3-yl)-4,5-dihydro-1H-imidazole] | –
22 | 32.8% | 5.1% | – | COc1cccc(OC)c1-c1cccc(CN2CCCC2)c1 [Compound 11, 1-((2′,6′-dimethoxy-[1,1′-biphenyl]-3-yl)methyl)pyrrolidine] | –
23 | 50.9% | 43.6% | 10.5 µM | Clc1cccc(-c2cccc(C3=NCCN3)c2)c1 [Compound 25, 2-(3′-chloro-[1,1′-biphenyl]-3-yl)-4,5-dihydro-1H-imidazole] | –
24 | 47.6% | 36% | – | Clc1ccccc1-c1cccc(C2=NCCN2)c1 [Compound 24, 2-(2′-chloro-[1,1′-biphenyl]-3-yl)-4,5-dihydro-1H-imidazole] | –
25 | 55.3% | 23% | – | Cc1ccccc1-c1cccc(C2=NCCN2)c1 [Compound 27, 2-(2′-methyl-[1,1′-biphenyl]-3-yl)-4,5-dihydro-1H-imidazole] | –
26 | 49.5% | 25% | – | Cc1ccccc1-c1cccc(CN2CCCC2)c1 [Compound 5, 1-((2′-methyl-[1,1′-biphenyl]-3-yl)methyl)pyrrolidine] | –
27 | 40.8% | 11.9% | – | COc1ccc(-c2cccc(C3=NCCN3)c2)cc1 [Compound 32, 2-(4′-methoxy-[1,1′-biphenyl]-3-yl)-4,5-dihydro-1H-imidazole] | –
28 | 57.1% | 18% | – | COc1ccccc1-c1cccc(CN2CCCC2)c1 [Compound 8, 1-((2′-methoxy-[1,1′-biphenyl]-3-yl)methyl)pyrrolidine] | –
29 | 44.3% | 27.7% | – | COc1ccccc1-c1cc(C2=NCCN2)ccc1Cl [Compound 41, 2-(6-chloro-2′-methoxy-[1,1′-biphenyl]-3-yl)-4,5-dihydro-1H-imidazole] | –
30 | 44.6% | 28.8% | – | Cc1cccc(-c2cccc(C3=NCCN3)c2)c1 [Compound 28, 2-(3′-methyl-[1,1′-biphenyl]-3-yl)-4,5-dihydro-1H-imidazole] | –
31 | 53.8% | 42% | 20.4 µM | Clc1ccccc1-c1cc(C2=NCCN2)ccc1Cl [Compound 35, 2-(2′,6-dichloro-[1,1′-biphenyl]-3-yl)-4,5-dihydro-1H-imidazole] | –
32 | 51.4% | 31.7% | – | Cc1ccccc1-c1cc(C2=NCCN2)ccc1Cl [Compound 38, 2-(6-chloro-2′-methyl-[1,1′-biphenyl]-3-yl)-4,5-dihydro-1H-imidazole] | –
33 | 52.4% | 44.8% | 10 µM | Clc1cccc(-c2cc(C3=NCCN3)ccc2Cl)c1 [Compound 36, 2-(3′,6-dichloro-[1,1′-biphenyl]-3-yl)-4,5-dihydro-1H-imidazole] | –
34 | 48.4% | 31.6% | – | Clc1ccc(C2=NCCN2)cc1-c1ccccc1 [Compound 34, 2-(6-chloro-[1,1′-biphenyl]-3-yl)-4,5-dihydro-1H-imidazole] | –
35 | 42.7% | 3.3% | – | COc1ccccc1-c1c(Cl)ccc(CN2CCCC2)c1OC [Compound 22, 1-((6-chloro-2,6′-dimethoxy-[1,1′-biphenyl]-3-yl)methyl)pyrrolidine] | –
36 | 51.8% | 11.4% | – | Cc1cccc(-c2cc(CN3CCCC3)ccc2Cl)c1 [Compound 17, 1-((6-chloro-3′methyl-[1,1′-biphenyl]-3-yl)methyl)pyrrolidine] | –
